Assay: xn = mol fraction of the nth substance listed
Conditions: 100 kPa

COCCOCCO + CCCC[n+]1ccn(C)c1.O=S(=O)([O-])C(F)(F)F
speed of sound [m/s]
Conditions	x2 = 0	x2 = 0.1	x2 = 0.2056	x2 = 0.3064	x2 = 0.3986	x2 = 0.4904	x2 = 0.5981	x2 = 0.6945	x2 = 0.7795	x2 = 0.9015
298.15 K	1415.8	1423.6	1420.5	1415.5	1410.7	1406.3	–	1398.8	1396.8	1394.5
303.15 K	–	1408.2	1406.1	1401.6	1397.5	–	1390	1386.9	–	1383.3
308.15 K	–	1392.4	1391.5	1387.8	1384.4	1381	1378	1375.4	1374	1372
313.15 K	1366.4	1376.8	1376.9	–	1371.3	1368.4	–	–	1362.6	1360.9
318.15 K	–	–	–	–	–	1356	1354	1352.2	1351.2	1349.9
323.15 K	1333.4	1345.6	1348	1346.9	1345.5	1343.6	–	1340.7	–	1338.9

CCCC[n+]1ccn(C)c1.O=S(=O)([O-])C(F)(F)F + COCCOCCO
x1 = 1
Conditions	speed of sound [m/s]
298.15 K	1392.8
308.15 K	1370.6
313.15 K	1359.6

Reference: a compilation of properties of binary mixtures (doi:10.1016/j.molliq.2017.04.129)
